assay: Reactivity of nucleophilic reagent with evaluation substance (depletion, HPLC), primary evaluation; conditions: 1 mmol/L test substance solution, 25° C., 24 hours
Method: 1) A nucleophilic reagent is dissolved in DMSO (manufactured by FUJIFILM Wako Pure Chemical Corporation) depending on its molecular weight to prepare a 2 mmol/L nucleophilic reagent solution.
2) To a 500 mL container, 149.5 mL of the buffer solution is added using a 50 mL measuring pipette, and 0.5 mL of the 2 mmol/L nucleophilic reagent solution is added and mixed by inversion so that the solution is diluted 300-fold (6.667 μmol/L). This solution is stored in a freezer at −70° C. or lower.
(§1) One solvent with which a 1 mmol/L test substance solution can be prepared is selected according to the following order of priority: water, acetonitrile, acetone, and a 5% solution of DMSO in acetonitrile. If water, acetonitrile, or acetone is selected, a 20 mmol/L test substance solution is first prepared. A suitable amount of the test substance is weighed and completely dissolved by adding the solvent to prepare a 20 mmol/L solution. A portion of the 20 mmol/L solution is then collected and diluted 20-fold with the same solvent to prepare a 1 mmol/L test substance solution. If a 5% by mass solution of DMSO in acetonitrile is selected, a 20 mmol/L test substance solution is prepared in the same manner as above. A portion of the solution is then collected and diluted 20-fold with acetonitrile to prepare a 1 mmol/L test substance solution.
Test substance solutions are prepared on a 96-well plate (U96 PP-0.5 ML NATURAL, Thermo (NUNC)), mainly using a 12-channel pipette, and the reagent is added in the following amount:
Nucleophilic reagent: 150 μL
(§2) Test substance solution: 50 μL
(§3) The plate is firmly sealed with a plate seal (resistant embossed seal (TORAST™ 96-well Seal E Type (TORAST is a registered trademark)), Shimadzu GLC Ltd.) and is shaken on a plate shaker (Titramax 100, Heidolph Instruments). After being spun down in a centrifuge, the reaction solutions are incubated at 25° C. in a light-shielded state for 24 hours.
(§4) After incubation for 24 hours, the plate seal is removed, and 50 μL of the reaction stop solution is added to each sample to stop the reaction.
The HPLC measurement conditions for the nucleophilic reagents are given below. As the elution conditions, condition 1, 2 or 3 was selected depending on the nucleophilic reagent.
(§5) The depletion of the nucleophilic reagent is calculated from the mean peak area of the nucleophilic reagent by the following equation: […]
(§6) Ten substances shown in the following table were used for reactivity evaluation. For primary evaluation, the upper three substances were used. […] For secondary evaluation, the lower seven substances were used. The substances selected for the secondary evaluation were substances that are difficult to distinguish between sensitizers and non-sensitizers by analysis using NAC and NAL. As above, the substances selected for the secondary evaluation were five substances that mainly react with cysteine and two substances that mainly react with lysine.

| Structure (SMILES) | reactivity (nucleophilic reagent depletion) with 2-methyl-2H-isothiazol-3-one |
| --- | --- |
| CC(=O)N[C@@H](CS)C(=O)N[C@@H](CCCCN)C(=O)N[C@@H](CC(=O)O)C(=O)NCc1cccc2ccccc12 [Compound 4] | about 100% |
| NCCCC[C@H](NC(=O)[C@H](CS)NC(=O)CO)C(=O)N[C@@H](CC(=O)O)C(=O)NCc1cccc2ccccc12 [Compound 13] | about 100% |
| NCCCCC(NC(=O)[C@H](CS)NC(=O)[C@H](Cc1ccccn1)NC(=O)Cc1ccc2ccccc2c1)C(N)=O (some centres unmarked) [Compound 16] | about 100% |
| NCCCCC(NC(=O)[C@H](CS)NC(=O)[C@H](Cc1c[nH]cn1)NC(=O)Cc1ccc2ccccc2c1)C(N)=O (some centres unmarked) [Compound 19] | about 100% |
| NCCCCC(NC(=O)[C@H](CS)NC(=O)[C@H](Cc1ccccn1)NC(=O)Cc1ccc2ccccc2c1)C(=O)O (some centres unmarked) [Compound 21] | about 100% |
| NCCCCC(NC(=O)[C@H](CS)NC(=O)C(Cc1ccncc1)NC(=O)Cc1ccc2ccccc2c1)C(=O)O (some centres unmarked) [Compound 22] | about 100% |
| NCCCCC(NC(=O)[C@H](CS)NC(=O)C(Cc1c[nH]cn1)NC(=O)Cc1ccc2ccccc2c1)C(=O)O (some centres unmarked) [Compound 24] | about 100% |
| NCCCC[C@H](NC(=O)C(Cc1ccncc1)NC(=O)Cc1ccc2ccccc2c1)C(=O)NC(CS)C(=O)O (some centres unmarked) [Compound 27] | about 100% |
| NCCCC[C@H](NC(=O)C(Cc1c[nH]cn1)NC(=O)Cc1ccc2ccccc2c1)C(=O)NC(CS)C(=O)O (some centres unmarked) [Compound 29] | about 100% |
| NCCCCC(NC(=O)Cc1ccc2ccccc2c1)C(=O)N[C@@H](CS)C(=O)O (some centres unmarked) [Compound 30] | about 100% |

assay: not given; conditions: class given for the evaluation substance; cited from earlier work

| Structure (SMILES) | Skin sensitization |
| --- | --- |
| Cn1sccc1=O [2-Methyl-2H-isothiazol-3-one] | Moderate |
| CC(C=O)Cc1ccc(C(C)C)cc1 (centres unmarked) [Cyclamen aldehyde] | Strong sensitizer |
| O=c1c(-c2ccccc2)c1-c1ccccc1 [Diphenylcyclopropenone] | Strong sensitizer |
| C=C(C)C(=O)OCCOC(=O)C(=C)C [Ethylene glycol dimethacrylate] | Strong sensitizer |
| CC(CC=O)CCCC(C)(C)O (centres unmarked) [Hydroxycitronellal] | Strong sensitizer |
| CCCCCCCCC(=O)Cl [Nonanoyl chloride] | Moderate |
| O=C(O)c1ccccc1O [Salicylic acid] | Non-sensitizer |
| O=C(O)c1ccc2c(c1)C(=O)OC2=O [Trimellitic anhydride] | Strong sensitizer |

assay: Depletion of nucleophilic reagent by evaluation substance (HPLC); conditions: 1 mmol/L test substance solution, 25° C., 24 hours
Excerpt: as §1, §3, §4, §5, §6
Using the three substances shown in the following table, 1 mmol/L solutions were prepared and used for testing.
A solution prepared by dissolving NAC and NAL in a phosphate buffer solution (pH 8.0) prepared in accordance with “(1-2) 100 mmol/L Phosphate Buffer Solution (pH 8.0)” of “(1) Preparation of Various Solutions” above such that the concentration of each nucleophilic reagent was 13.333 μmol/L was used as a nucleophilic reagent stock solution.
Nucleophilic reagent stock solution: NAC and NAL, 75 μL each
as §2
The procedures described in “(4-2) Reaction” and “(4-3) Reaction Stop” of “(4) Reaction” above were performed.
In addition, the nucleophilic reagent depletion (%) was determined by the method described in “(6) Data Analysis” above.

| Structure (SMILES) | depletion for 5-methyl-2,3-hexanedione [%] | depletion for diphenylcyclopropenone [%] | depletion for nonanoyl chloride [%] |
| --- | --- | --- | --- |
| CC(=O)N[C@@H](CCCCN)C(=O)N[C@@H](CS)C(=O)NCc1cccc2ccccc12 [Compound 2] | 16.7 | 34.9 | 65.2 |
| CC(=O)N[C@@H](CS)C(=O)N[C@@H](CCCCN)C(=O)N[C@@H](CC(=O)O)C(=O)NCc1cccc2ccccc12 [Compound 4] | 13.8 | 100 | 67.6 |

assay: Reactivity of nucleophilic reagent, secondary evaluation with seven substances; conditions: all six substances except 5-methyl-2,3-hexanedione
Excerpt: as §1
as §3, with “hours. […]” for “hours.”
as §5

| Structure (SMILES) | reactivity with six secondary evaluation substances compared with NAC or NAL |
| --- | --- |
| CC(=O)N[C@@H](CCCCN)C(=O)N[C@@H](CS)C(=O)NCc1cccc2ccccc12 [Compound 2] | higher than that of NAC or NAL alone and the mean depletion |
| CC(=O)N[C@@H](CS)C(=O)N[C@@H](CCCCN)C(=O)N[C@@H](CC(=O)O)C(=O)NCc1cccc2ccccc12 [Compound 4] | higher than that of NAC or NAL alone and the mean depletion |
